Results: PubChem BioAssay (NCI)
“And” between values parts separate entries of the source, which are not always exact repeats. Equal values may be shown once.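 A five-concentration, 48-hour dose response in 96-well plates underlies each endpoint, interpolated linearly between surrounding concentrations. GI50 marks 50% less growth. Definition used: TGI = concentration required for complete inhibition of growth.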

Columns and labels:
Assay in all cases: NCI tumour cell line growth inhibition, 48 h
A498 renal = system: A498 renal
A549 NSCLC = system: A549 NSCLC
HOP-92 NSCLC = system: HOP-92 NSCLC
K-562 leukemia = system: K-562 leukemia
KM12 colon = system: KM12 colon
MDA-MB-435 = system: MDA-MB-435
OVCAR-3 ovarian = system: OVCAR-3 ovarian
PC-3 prostate = system: PC-3 prostate
SN12C renal = system: SN12C renal
UACC-62 melanoma = system: UACC-62 melanoma

Row | Compound | GI50 (A498 renal) [µM] | TGI (A498 renal) | GI50 (A549 NSCLC) | TGI (A549 NSCLC) | GI50 (HOP-92 NSCLC) | TGI (HOP-92 NSCLC) [µM] | GI50 (K-562 leukemia) | TGI (K-562 leukemia) | GI50 (KM12 colon) | TGI (KM12 colon) | GI50 (MDA-MB-435) [µM] | TGI (MDA-MB-435) | GI50 (OVCAR-3 ovarian) | TGI (OVCAR-3 ovarian) | GI50 (PC-3 prostate) [µM] | TGI (PC-3 prostate) | GI50 (SN12C renal) | TGI (SN12C renal) | GI50 (UACC-62 melanoma) | TGI (UACC-62 melanoma)
1 | COc1cc(/C=C/C(=O)c2c(C)n([O-])c3ccccc3[n+]2=O)cc(OC)c1OC | 3.97 | 17.8 µM | 8.69 µM | 21.6 µM | 3.47 µM | 15.7 | 5.88 µM | > 100 µM | 10.7 µM | 24.7 µM | 5.4 | 22.5 µM | 5.17 µM | 18.6 µM | 4.45 | 19.3 µM | 5.82 µM | 20.3 µM | 11.3 µM | 23.3 µM
2 | CN1CCN(C2=C(Cl)C(=O)c3ccccc3C2=O)CC1 | 0.0132 | 4.25 µM | 3.42 µM | 11.2 µM | 1.52 µM | 3.07 | 1.65 µM | 7.57 µM | 5.27 µM | 16.7 µM | 1.95 | 3.6 µM | 1.39 µM | 2.69 µM | 3.45 | 8.91 µM | 1.61 µM | 3.08 µM | 1.65 µM | 3.11 µM
3 | O=C(O)CCC(O)=C1S(=O)(=O)OCCOS1(=O)=O |  | > 100 µM |  | > 100 µM |  | > 100 |  | > 100 µM |  | > 100 µM |  | > 100 µM |  | > 100 µM |  | > 100 µM |  | > 100 µM |  | > 100 µM
4 | O=C(c1ccc(Cl)cc1Cl)N1CCN(C(=O)c2ccc(Cl)cc2Cl)C1=S | 16.1 | 36.5 µM | 20.1 µM | 43.2 µM | 7.83 µM | 28.5 | 31.4 µM | > 100 µM | 15.3 µM | 29.4 µM | 16.4 | 33.7 µM | 19.7 µM | 42.4 µM | 22.7 | 68.3 µM | 18.1 µM | 34.4 µM | 17.3 µM | 31.6 µM
5 | COc1ccc(C2=Nn3c(nnc3-c3ccc(F)c(Cl)c3)SC2)cc1 | > 100 | > 100 µM | > 100 µM | > 100 µM | 18.1 µM | 56.7 | > 100 µM | > 100 µM | > 100 µM | > 100 µM | > 100 | > 100 µM | > 100 µM | > 100 µM | > 100 | > 100 µM | 5.53 µM | > 100 µM | > 100 µM | > 100 µM
6 | COc1cc(C[C@H]2COC(=O)[C@]2(O)Cc2ccc(OCc3ccccc3)c(OC)c2)ccc1OCc1ccccc1 | 27.5 | 99.1 µM | 7.13 µM | > 100 µM | > 100 µM | > 100 | 62.3 µM | > 100 µM | 7.3 µM | > 100 µM | 20.9 | > 100 µM | > 100 µM | > 100 µM | 74.7 | > 100 µM | 12.5 µM | > 100 µM | 40.5 µM | > 100 µM
7 | O=CNC(Cc1cnc[nH]1)C(=O)O (stereo not drawn) |  | > 100 µM |  | > 100 µM |  | > 100 |  | > 100 µM |  | > 100 µM |  | > 100 µM |  | > 100 µM |  | > 100 µM |  | > 100 µM |  | > 100 µM
8 | COC(=O)CNC(=O)C(=O)c1c(O)c(O)c(C(C)C)c2cc(C)c(-c3c(C)cc4c(C(C)C)c(O)c(O)c(C(=O)C(=O)NCC(=O)OC)c4c3O)c(O)c12 | 2.6 | 12.2 µM | 2.13 µM | 8.01 µM | 1.38 µM | 3.81 | 1.88 µM | > 50 µM | 1.39 µM | 7.29 µM | 2.46 | 9.3 µM | 1.61 µM | 6.34 µM | 1.84 | 7.26 µM | 1.97 µM | 8.13 µM | 2.23 µM | 9.48 µM
9 | Cc1cccc(CNc2c3ccccc3nc3ccccc23)c1 | 1.32 | 2.7 µM | 1.88 µM | 4.86 µM | 1.22 µM | 4.57 | 2.23 µM | 12.5 µM | 3.16 µM | 12.1 µM | 1.66 | 3.22 µM | 2.29 µM | 5.92 µM | 1.99 | 7.11 µM | 2.4 µM | 10.1 µM | 1.61 µM | 3.48 µM
10 | COc1ccc(-c2cn(C)c3c2-n2cccc2C3=O)cc1O | 2.82 | 9.4 µM | 18.1 µM | 54.1 µM | 6.8 µM | > 100 | 4.3 µM | > 100 µM | 3.71 µM | 16.4 µM | 0.893 | 3.91 µM | 3.39 µM | 21.4 µM | 6.09 | > 100 µM | 10.8 µM | 41.2 µM | 3.27 µM | 12.2 µM
11 | CN(C)S(=O)(=O)c1cccc(C(=O)Nc2nc(-c3ccc(F)c(F)c3)cs2)c1 | 16.9 | > 100 µM | 13.2 µM | > 100 µM | 9.41 µM | > 74.3 | 5.1 µM | > 100 µM | 24.2 µM | > 100 µM | 5.41 | > 100 µM | 18.4 µM | > 95.4 µM | 5.96 | > 100 µM | 25.9 µM | > 100 µM | 7.81 µM | > 100 µM
12 | CN[C@@H](C)C(=O)N[C@H](C(=O)N1CCC[C@H]1c1nc(C(=O)c2ccc(F)cc2)cs1)C1CCCCC1 | 6.59 | 25.4 µM | 35.2 µM | > 100 µM | 2.8 µM | 8.98 | 17 µM | 38.7 µM | 21.8 µM | 51.4 µM | 16.3 | 40.6 µM | 25.5 µM | > 100 µM | 24.1 | > 73.6 µM | 39.2 µM | > 100 µM | 16.6 µM | 35.2 µM
13 | CCN(Cc1cc(Cl)cc(C)c1O)Cc1c(O)ccc2ccccc12 |  | 33.1 µM |  | 38 µM |  | 26.2 |  | 65.4 µM |  | 33 µM |  | 29.9 µM |  | 29 µM |  | 29.9 µM |  | 37 µM |  | 31.4 µM
14 | O=NNc1ccc(-c2ccccc2)cn1 |  | 32.7 µM |  | > 92.3 µM |  | 8.45 |  | > 100 µM |  | > 82.1 µM |  | 30.9 µM |  | 53.1 µM |  | 61.2 µM |  | > 35.1 µM |  | 31.3 µM
15 | O=C1c2ccccc2C(=O)c2c1ccc1conc21 |  | 24.3 µM |  | 11.2 µM |  | 3.04 |  | 42.5 µM |  | 7.45 µM |  | 1.37 µM |  | 0.974 µM |  | 5.06 µM |  | 3.61 µM |  | 5.63 µM
16 | CN(C)Cc1ccc(NC(=O)c2cncc(C#Cc3cnc(N)c4ncccc34)c2)cc1C(F)(F)F | 1.5 | 4.63 µM | 1.67 µM | 3.41 µM | 1.04 µM | 4.66 |  | 1.02 µM | 0.0759 µM | 1.4 µM | 0.376 | 1.88 µM | 1.98 µM | 3.8 µM | 1.64 | 3.04 µM | 1.54 µM | 3.02 µM | 1.19 µM | 2.53 µM
17 | O=C1OC(c2ccc([N+](=O)[O-])cc2)=N/C1=C\c1ccc(Cl)cc1 |  | > 100 µM |  | > 100 µM |  | > 100 |  | > 100 µM |  | > 100 µM |  | > 100 µM |  | > 100 µM |  | > 100 µM |  | > 100 µM |  | > 100 µM
18 | O=C(O)/C=C/c1c2ccc(=O)c(O)c-2oc2c(O)c(O)ccc12 |  | > 100 µM |  | > 100 µM |  | > 100 |  | 50.2 µM |  | > 100 µM |  | 33.5 µM |  | > 100 µM |  | > 100 µM |  | 32.3 µM |  | > 100 µM
19 | Nc1c(C(=O)c2cccc(-c3cccnc3)c2)cnn1-c1ccc(F)cc1 | > 25 | > 25 µM | > 25 µM | > 25 µM | > 8.11 µM | > 25 | > 25 µM | > 25 µM | > 25 µM | > 25 µM | > 25 | > 25 µM | > 25 µM | > 25 µM | > 25 | > 25 µM | > 25 µM | > 25 µM | > 25 µM | > 25 µM
20 | Cc1cc(NC(=O)NCCOc2ccc(N3C(N)=NC(N)=NC3(C)C)cc2Cl)ccc1S(=O)(=O)F | 10.2 | > 100 µM | 1.4 µM | > 68.3 µM | 5.07 µM | 22.2 | 0.599 µM | > 100 µM | 1.04 µM | > 44.3 µM | 0.626 | > 100 µM | 5.24 µM | > 71 µM | 0.143 | 22.3 µM | 1.85 µM | > 100 µM | 0.726 µM | 35.2 µM
21 | COc1ccc(-n2nc(C)c3c(Nc4ccc(NC(=O)Nc5cccc(C(F)(F)F)c5)cc4)ncnc32)cc1 | 1.99 | 4.45 µM | 1.65 µM | 3.45 µM | 1.59 µM | 3.31 | 2.18 µM | 7.22 µM | 1.63 µM | 3.76 µM | 1.8 | 3.78 µM | 1.74 µM | 3.92 µM | 1.49 | 3.9 µM | 1.79 µM | 3.86 µM | 1.76 µM | 3.46 µM
22 | COc1ccc2[nH]c3c(C)c4c(c(C)c3c2c1)CN(C)C=C4 |  | 21.3 µM |  | 23.6 µM |  | 19.5 |  | 46.5 µM |  | 10.6 µM |  | 71.2 µM |  | 34.9 µM |  | 81.3 µM |  | 0.985 µM |  | 28.1 µM
23 | NC(CSC(c1ccccc1)(c1ccccc1)c1ccccc1)C(=O)O (stereo not drawn) | 0.493 | 51.9 µM and 43 µM | 4.86 µM and 2.75 µM | 82.1 µM and > 100 µM | 2.17 µM and 10.1 µM |  | 1.76 µM and 0.775 µM | 31.9 µM and > 100 µM | 5.15 µM and 2.35 µM | 96.3 µM and 24 µM | 0.275 | 0.648 µM and 0.791 µM | 2.46 µM and 2.18 µM | 9.48 µM and 27.9 µM and 13 µM | 2.43 | 12.1 µM and > 100 µM | 2.99 µM and 0.877 µM | 23.8 µM and 68.3 µM and > 100 µM | 2.01 µM and 3.98 µM | 42.9 µM and > 100 µM
24 | CCN1C(=O)N(CC)C2C1NN=c1s/c(=C3\C(=O)Nc4ccccc43)c(=O)n12 (stereo not drawn) | 0.193 | 0.728 µM | 0.812 µM | > 100 µM | 0.598 µM | 32.5 | 0.343 µM | > 100 µM | 0.452 µM | > 100 µM | 0.147 | 0.357 µM | 0.331 µM | 3.02 µM | 0.393 | > 100 µM | 0.6 µM | > 100 µM | 0.371 µM | 23.9 µM
